Legend:
HeLa = experiment: MTT assay, human cancer cells HeLa; assay type: cell-based; settings: for Platinum content calculated from IC50 of human cancer cells by MTT assay: IC50 converted to platinum concentration; for IC50 of human cancer cells by MTT assay: cervical cancer, HAP agents particle diameter 0.1 μm or less
Protocol: (§1) Effect of platinum tetrachloride/hydroxyapatite (PtCl4/HAP) and hexachloroplatinate/hydroxyapatite (H2PtCl6/HAP) against human cancer cells (MTT assay)
(§2) According to “in vitro toxicity test using MTT”, which is an ordinary test method, MTT assay was performed for PtCl4/HAP (particle diameter 0.1 μm or less), and H2PtCl6/HAP (particle diameter 0.1 μm or less) by using 19 types of human cancer cells. PtCl4/HAP and H2PtCl6/HAP were used by adjusting the final dispersion concentration to 1.0% in a dispersion liquid each containing 10% platinum as a theoretical value. For comparison, MTT assay was performed for PtCl4 and CDDP. PtCl4 was dissolved at an adequate dose, and then used after serial dilution with PBS (−). For CDDP, injection liquid from Malco was used.

SiHa = experiment: MTT assay, human cancer cells SiHa; assay type: cell-based; settings: for Platinum content calculated from IC50 of human cancer cells by MTT assay: IC50 converted to platinum concentration; for IC50 of human cancer cells by MTT assay: cervical cancer, HAP agents particle diameter 0.1 μm or less
Protocol: as §1, §2

A431 = experiment: MTT assay, human cancer cells A431; assay type: cell-based; settings: for IC50 of human cancer cells by MTT assay: A431, squamous cell cancer, HAP agents particle diameter 0.1 μm or less; for Platinum content calculated from IC50 of human cancer cells by MTT assay: A431, IC50 converted to platinum concentration
Protocol: as §1, §2

HSC3 = experiment: MTT assay, human cancer cells HSC3; assay type: cell-based; settings: for IC50 of human cancer cells by MTT assay: HSC3, oral cancer, HAP agents particle diameter 0.1 μm or less; for Platinum content calculated from IC50 of human cancer cells by MTT assay: HSC3, IC50 converted to platinum concentration
Protocol: as §1, §2

KB = experiment: MTT assay, human cancer cells KB; assay type: cell-based; settings: for Platinum content calculated from IC50 of human cancer cells by MTT assay: IC50 converted to platinum concentration; for IC50 of human cancer cells by MTT assay: oral cancer, HAP agents particle diameter 0.1 μm or less
Protocol: as §1, §2

YES2 = experiment: MTT assay, human cancer cells YES2; assay type: cell-based; settings: for IC50 of human cancer cells by MTT assay: YES2, esophageal cancer, HAP agents particle diameter 0.1 μm or less; for Platinum content calculated from IC50 of human cancer cells by MTT assay: YES2, IC50 converted to platinum concentration
Protocol: as §1, §2

YES3 = experiment: MTT assay, human cancer cells YES3; assay type: cell-based; settings: for IC50 of human cancer cells by MTT assay: YES3, esophageal cancer, HAP agents particle diameter 0.1 μm or less; for Platinum content calculated from IC50 of human cancer cells by MTT assay: YES3, IC50 converted to platinum concentration
Protocol: as §1, §2

YES4 = experiment: MTT assay, human cancer cells YES4; assay type: cell-based; settings: for IC50 of human cancer cells by MTT assay: YES4, esophageal cancer, HAP agents particle diameter 0.1 μm or less; for Platinum content calculated from IC50 of human cancer cells by MTT assay: YES4, IC50 converted to platinum concentration
Protocol: as §1, §2

YES5 = experiment: MTT assay, human cancer cells YES5; assay type: cell-based; settings: for IC50 of human cancer cells by MTT assay: YES5, esophageal cancer, HAP agents particle diameter 0.1 μm or less; for Platinum content calculated from IC50 of human cancer cells by MTT assay: YES5, IC50 converted to platinum concentration
Protocol: as §1, §2

YES6 = experiment: MTT assay, human cancer cells YES6; assay type: cell-based; settings: for IC50 of human cancer cells by MTT assay: YES6, esophageal cancer, HAP agents particle diameter 0.1 μm or less; for Platinum content calculated from IC50 of human cancer cells by MTT assay: YES6, IC50 converted to platinum concentration
Protocol: as §1, §2

AZ521 = experiment: MTT assay, human cancer cells AZ521; assay type: cell-based; settings: for IC50 of human cancer cells by MTT assay: AZ521, gastric cancer, HAP agents particle diameter 0.1 μm or less; for Platinum content calculated from IC50 of human cancer cells by MTT assay: AZ521, IC50 converted to platinum concentration
Protocol: as §1, §2

SW837 = experiment: MTT assay, human cancer cells SW837; assay type: cell-based; settings: for IC50 of human cancer cells by MTT assay: SW837, colon cancer, HAP agents particle diameter 0.1 μm or less; for Platinum content calculated from IC50 of human cancer cells by MTT assay: SW837, IC50 converted to platinum concentration
Protocol: as §1, §2

[1] = test system: fibroblasts during resting stage; experiment: Toxicity test during resting stage (MTT assay); assay type: cell-based; settings: rat fibroblasts, confluent, 48 hours; for IC50 in the toxicity test during resting stage: HAP agents particle diameter 0.1 μm or less
Description: (§3) A male mature rat was deeply anesthetized with ether, and disinfected by wiping carefully its tail with alcohol. The tail end part was cut by several centimeters, and the skin was removed from coccyx. Tendon was attached to the coccyx, and by culturing the same, fibroblasts can be recovered. Coccyx part was further cut finely with a sterilized pair of scissors, and adhered on a sterilized plastic plate with the cut surface down. After resting the plate for a while, DMEM supplemented with 10% FBS was added thereto. In approximately one week, fibroblasts germinated from the coccyx part, and proliferated in the plate. The fibroblasts collected from rat tail end were used for the following experiment.
Rat fibroblasts during proliferating stage were inoculated 2 times more than usual to a 96-well plate, that 100 μl of cell suspension at 2×10^4 cells/ml. Subsequently, it was cultured for 72 hours, in order to make cells in a confluent condition. After confirming with an inverted microscope that cells were in a complete confluent condition in each well, medium of each well was changed. Then, serially diluted test samples were added to the wells by aliquot of 10 μl, by the above-mentioned method. Culture was continued 48 hours after the addition, and subsequently, MTT assay was performed for PtCl4/HAP (particle diameter 0.1 μm or less), and H2PtCl6/HAP (particle diameter 0.1 μm or less), with similar procedures to those described in the above “toxicity test of PtCl4/HAP and H2PtCl6/HAP during proliferation stage”.

[2] = test system: fibroblasts at confluency; experiment: Microscopic observation of toxicity effect during resting stage; assay type: cell-based, rat; settings: amount corresponding to 2 ppm of platinum content, fibroblasts at confluency, cultured for 48 hours
Description: as §3
From the result of Example 7, 2 ppm which is a value of platinum content that kills 50% of fibroblasts in CDDP during resting stage was set as a standard. Then, CDDP, PtCl4/HAP, PtCl4 and HAP dispersion liquids in an amount corresponding to 2 ppm of platinum content, were added to the fibroblasts at confluency in a medium, and cultured for 48 hours.

Compound	Platinum content calculated from IC50 of human cancer cells by MTT assay (HeLa) [ppm]	IC50 of human cancer cells by MTT assay (HeLa) [ppm]	Platinum content calculated from IC50 of human cancer cells by MTT assay (SiHa) [ppm]	IC50 of human cancer cells by MTT assay (SiHa) [ppm]	IC50 of human cancer cells by MTT assay (A431) [ppm]	Platinum content calculated from IC50 of human cancer cells by MTT assay (A431) [ppm]	IC50 of human cancer cells by MTT assay (HSC3) [ppm]	Platinum content calculated from IC50 of human cancer cells by MTT assay (HSC3) [ppm]	Platinum content calculated from IC50 of human cancer cells by MTT assay (KB) [ppm]	IC50 of human cancer cells by MTT assay (KB) [ppm]	IC50 of human cancer cells by MTT assay (YES2) [ppm]	Platinum content calculated from IC50 of human cancer cells by MTT assay (YES2) [ppm]	IC50 of human cancer cells by MTT assay (YES3) [ppm]	Platinum content calculated from IC50 of human cancer cells by MTT assay (YES3) [ppm]	IC50 of human cancer cells by MTT assay (YES4) [ppm]	Platinum content calculated from IC50 of human cancer cells by MTT assay (YES4) [ppm]	IC50 of human cancer cells by MTT assay (YES5) [ppm]	Platinum content calculated from IC50 of human cancer cells by MTT assay (YES5) [ppm]	IC50 of human cancer cells by MTT assay (YES6) [ppm]	Platinum content calculated from IC50 of human cancer cells by MTT assay (YES6) [ppm]	other results
[Cl][Pt]([Cl])([Cl])[Cl] [PtCl4, platinum tetrachloride]	4.0	7.0	5.0	8.7	9.5	5.5	9.6	5.5	8.7	15.0	35.8	20.7	19.2	11.1	14.6	8.5	20.1	11.6	11.9	6.9	IC50 of human cancer cells by MTT assay (AZ521): 14.6 ppm; Platinum content calculated from IC50 of human cancer cells by MTT assay (AZ521): 8.4 ppm; IC50 of human cancer cells by MTT assay (SW837): 32.9 ppm; Platinum content calculated from IC50 of human cancer cells by MTT assay (SW837): 19.1 ppm; Net Pt: platinum content wherein IC50 is converted to platinum concentration, resting stage [1]: 13.8 ppm; IC50 in the toxicity test during resting stage [1]: 23.8 ppm; Microscopic observation of cell form of cultured fibroblasts [2]: many cells wherein spindle form was deformed, or having a round form, were observed
[NH2][Pt]([NH2])([Cl])[Cl] [CDDP, cisplatin]	1.4	2.1	9.8	15.1	5.7	3.7	2.9	1.9	4.1	6.3	1.7	1.1	1.2	0.8	1.3	0.8	10.0	6.5	0.8	0.5	IC50 of human cancer cells by MTT assay (AZ521): 1.0 ppm; Platinum content calculated from IC50 of human cancer cells by MTT assay (AZ521): 0.7 ppm; IC50 of human cancer cells by MTT assay (SW837): 40.2 ppm; Platinum content calculated from IC50 of human cancer cells by MTT assay (SW837): 26.1 ppm; Net Pt: platinum content wherein IC50 is converted to platinum concentration, resting stage [1]: 1.9 ppm; IC50 in the toxicity test during resting stage [1]: 2.9 ppm; Microscopic observation of cell form of cultured fibroblasts [2]: most of the cells had a round form
